Experimental data published in ChEMBL document CHEMBL1201862, “PubChem BioAssay data set” (2004).
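1) Cells in 96-well plates. 2) Compound, 48 h, 5 concentrations. 3) Linear interpolation between surrounding doses. 4) Unreached endpoint = highest concentration. GI50 is the concentration that inhibits growth by half.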 Calls of active or inactive are those of the source. Rule as the data show it: active = GI50 up to about 1.1 µM and inactive = higher.

Experiments:
Assay in all cases: DTP human tumour cell line panel, 48 h
SW-620 = test system: SW-620
NCI/ADR-RES = test system: NCI/ADR-RES
SK-MEL-2 = test system: SK-MEL-2
NCI-H226 = test system: NCI-H226
UACC-257 = test system: UACC-257
MDA-MB-435 = test system: MDA-MB-435
OVCAR-8 = test system: OVCAR-8
SK-OV-3 = test system: SK-OV-3
Hs-578T = test system: Hs-578T
HT-29 = test system: HT-29
HOP-92 = test system: HOP-92
A498 = test system: A498
PC-3 = test system: PC-3
HCT-15 = test system: HCT-15
UO-31 = test system: UO-31
KM12 = test system: KM12
OVCAR-3 = test system: OVCAR-3
SN12C = test system: SN12C
MDA-MB-231 = test system: MDA-MB-231
DU-145 = test system: DU-145

Row | SMILES | GI50 (SW-620) | GI50 (NCI/ADR-RES) | GI50 (SK-MEL-2) | GI50 (NCI-H226) | GI50 (UACC-257) | GI50 (MDA-MB-435) | GI50 (OVCAR-8) | GI50 (SK-OV-3) | GI50 (Hs-578T) | GI50 (HT-29) | GI50 (HOP-92) | GI50 (A498) | GI50 (PC-3) | GI50 (HCT-15) [µM] | GI50 (UO-31) | GI50 (KM12) | GI50 (OVCAR-3) | GI50 (SN12C) | GI50 (MDA-MB-231) | GI50 (DU-145)
1 | Oc1cccc(Nc2cc(O)nc(O)n2)c1 | > 100 µM (inactive) | > 100 µM (inactive) | > 100 µM (inactive) | > 100 µM (inactive) | > 100 µM (inactive) | > 100 µM (inactive) | > 100 µM (inactive) | 67.9 µM (inactive) | > 100 µM (inactive) | > 100 µM (inactive) | 66.8 µM (inactive) | > 100 µM (inactive) | > 100 µM (inactive) | > 100 | > 100 µM (inactive) | > 100 µM (inactive) | > 100 µM (inactive) | > 100 µM (inactive) | > 100 µM (inactive) | –
2 | COc1ccc(/C=N/NC(=O)c2cnc3[nH]c(=O)n(C)c(=O)c3c2)cc1 | > 100 µM (inactive) | 97.3 µM (inactive) | 44.3 µM (inactive) | 64.1 µM (inactive) | > 100 µM (inactive) | > 100 µM (inactive) | 40.6 µM (inactive) | 59.2 µM (inactive) | 39.9 µM (inactive) | > 100 µM (inactive) | – | – | > 100 µM (inactive) | > 100 | > 100 µM (inactive) | > 100 µM (inactive) | > 100 µM (inactive) | 88.3 µM (inactive) | 27 µM (inactive) | > 100 µM (inactive)
3 | N#CCC(=O)c1cc(OCc2cc(OCc3ccc(Br)cc3)cc(OCc3ccc(Br)cc3)c2)cc(OCc2cc(OCc3ccc(Br)cc3)cc(OCc3ccc(Br)cc3)c2)c1 | – | > 100 µM (inactive) | > 100 µM (inactive) | > 100 µM (inactive) | > 100 µM (inactive) | > 100 µM (inactive) | – | > 100 µM (inactive) | – | – | > 100 µM (inactive) | > 100 µM (inactive) | > 100 µM (inactive) | > 100 | > 100 µM (inactive) | > 100 µM (inactive) | > 100 µM (inactive) | > 100 µM (inactive) | > 100 µM (inactive) | > 100 µM (inactive)
4 | O=C1N=C2SC=C(NC(=S)Nc3ccccc3)N2NC12c1ccccc1-c1ccccc12 | > 10 µM (inactive) | > 10 µM (inactive) | – | > 10 µM (inactive) | > 10 µM (inactive) | > 10 µM (inactive) | > 10 µM (inactive) | > 10 µM (inactive) | > 10 µM (inactive) | > 10 µM (inactive) | > 10 µM (inactive) | – | > 10 µM (inactive) | > 10 | 8.67 µM (inactive) | > 10 µM (inactive) | – | > 10 µM (inactive) | > 10 µM (inactive) | > 10 µM (inactive)
5 | COC(=O)/C=C1/CCC(C)(C(=O)NS(=O)(=O)c2ccc(C)cc2)C1(C)C (stereo not given) | > 100 µM (inactive) | > 100 µM (inactive) | > 100 µM (inactive) | > 100 µM (inactive) | > 100 µM (inactive) | > 100 µM (inactive) | > 100 µM (inactive) | > 100 µM (inactive) | – | – | > 100 µM (inactive) | > 100 µM (inactive) | > 100 µM (inactive) | > 100 | > 100 µM (inactive) | > 100 µM (inactive) | > 100 µM (inactive) | > 100 µM (inactive) | > 100 µM (inactive) | > 100 µM (inactive)
6 | CC(C(N)C(=O)NC(C(=O)O)C1OC(n2ccc(=O)[nH]c2=O)C(O)C1O)C(O)c1ccc(O)cn1 (stereo not given) | > 100 µM (inactive) | > 100 µM (inactive) | > 100 µM (inactive) | – | > 100 µM (inactive) | > 100 µM (inactive) | > 100 µM (inactive) | – | > 100 µM (inactive) | > 100 µM (inactive) | > 100 µM (inactive) | – | > 100 µM (inactive) | > 100 | > 100 µM (inactive) | > 100 µM (inactive) | > 100 µM (inactive) | > 100 µM (inactive) | > 100 µM (inactive) | > 100 µM (inactive)
7 | CC(=O)Oc1ccc2c(c1)[nH]c1c3ccc(OC(C)=O)cc3oc(=O)c21 | 25 µM (inactive) | > 100 µM (inactive) | – | 21.8 µM (inactive) | 43.2 µM (inactive) | 27.2 µM (inactive) | 35.4 µM (inactive) | 26 µM (inactive) | 31.3 µM (inactive) | 34.2 µM (inactive) | 61.1 µM (inactive) | – | 24.5 µM (inactive) | 37 | 27.8 µM (inactive) | 29.1 µM (inactive) | 24.8 µM (inactive) | 30.5 µM (inactive) | 29.2 µM (inactive) | 33.3 µM (inactive)
8 | N#Cc1nc(Cc2ccccc2)oc1N | > 100 µM (inactive) | – | > 100 µM (inactive) | > 100 µM (inactive) | > 100 µM (inactive) | > 100 µM (inactive) | – | > 100 µM (inactive) | 25.2 µM (inactive) | > 100 µM (inactive) | – | – | > 100 µM (inactive) | > 100 | > 100 µM (inactive) | > 100 µM (inactive) | > 100 µM (inactive) | > 100 µM (inactive) | > 100 µM (inactive) | > 100 µM (inactive)
9 | Cc1cc(OP2(=O)NCc3ncccc3O2)ccc1Cl (stereo not given) | > 100 µM (inactive) | > 100 µM (inactive) | > 100 µM (inactive) | > 100 µM (inactive) | > 100 µM (inactive) | > 100 µM (inactive) | > 100 µM (inactive) | – | – | – | > 100 µM (inactive) | > 100 µM (inactive) | > 100 µM (inactive) | > 100 | > 100 µM (inactive) | 58.5 µM (inactive) | > 100 µM (inactive) | > 100 µM (inactive) | > 100 µM (inactive) | > 100 µM (inactive)
10 | COc1cc(/C=C2\N=C(c3ccccc3)N(c3nc4cc(C)c(C)cc4s3)C2=O)cc(OC)c1OC | 29.4 µM (inactive) | 28.1 µM (inactive) | 32 µM (inactive) | – | 28.9 µM (inactive) | 12.9 µM (inactive) | 19.8 µM (inactive) | 27.7 µM (inactive) | 16.6 µM (inactive) | 19 µM (inactive) | 13 µM (inactive) | – | 23.9 µM (inactive) | 30.3 | 24.7 µM (inactive) | 21.8 µM (inactive) | 20 µM (inactive) | 34.8 µM (inactive) | 43.6 µM (inactive) | 45.4 µM (inactive)
11 | C(=N\Cc1ccccc1)/c1ccccc1-c1ccccc1/C=N/Cc1ccccc1 | > 10 µM (inactive) | > 10 µM (inactive) | > 10 µM (inactive) | > 10 µM (inactive) | 2.7 µM (inactive) | > 10 µM (inactive) | > 10 µM (inactive) | > 10 µM (inactive) | – | > 10 µM (inactive) | > 10 µM (inactive) | > 10 µM (inactive) | > 10 µM (inactive) | 5.47 | > 10 µM (inactive) | > 10 µM (inactive) | 4.6 µM (inactive) | > 10 µM (inactive) | > 10 µM (inactive) | > 10 µM (inactive)
12 | CC[C@@]1(C[C@H]2C[C@@]3(C(=O)OC)c4[nH]c5ccccc5c4CCN3C2=S)COC2(CCCCC2)O1 | 3.13 µM (inactive) | 57 µM (inactive) | > 100 µM (inactive) | – | 26.5 µM (inactive) | 5.09 µM (inactive) | > 100 µM (inactive) | > 100 µM (inactive) | 10.6 µM (inactive) | 16.7 µM (inactive) | 2.62 µM (inactive) | 88.7 µM (inactive) | 4.97 µM (inactive) | 5.57 | 7.78 µM (inactive) | 4.47 µM (inactive) | 55.7 µM (inactive) | > 100 µM (inactive) | – | > 100 µM (inactive)
13 | Cc1ccc(C)c(NC(=O)C(=O)C2C(=O)C3=C(CC2(C)C)Nc2ccccc2S3)c1 (stereo not given) | > 100 µM (inactive) | 65.2 µM (inactive) | > 100 µM (inactive) | 58.1 µM (inactive) | > 100 µM (inactive) | > 100 µM (inactive) | 33.8 µM (inactive) | 60.4 µM (inactive) | 69.2 µM (inactive) | > 100 µM (inactive) | 52.1 µM (inactive) | – | > 100 µM (inactive) | > 100 | 53.8 µM (inactive) | > 100 µM (inactive) | 55.6 µM (inactive) | > 100 µM (inactive) | 97.1 µM (inactive) | 93.5 µM (inactive)
14 | CCOC(=O)Cc1csc(N/C=C2/C(=O)Oc3ccccc3C2=O)n1 | 21.6 µM (inactive) | 17.7 µM (inactive) | 13.6 µM (inactive) | 22.6 µM (inactive) | 20.8 µM (inactive) | 23.9 µM (inactive) | 13.1 µM (inactive) | 35.4 µM (inactive) | 22 µM (inactive) | 39.1 µM (inactive) | 11.7 µM (inactive) | – | 32.2 µM (inactive) | 24.2 | 14.9 µM (inactive) | 27.8 µM (inactive) | 25.9 µM (inactive) | – | – | –
15 | COC[C@@H](C[C@H]1O[C@@](O)([C@H](O)[C@@H]2C[C@H](OC)[C@@H](O)CC/C=C(C)/C=C/[C@@H](O[C@@H]3O[C@@H](C)[C@H](OC)[C@@H](O)[C@@H]3O)[C@H](C)/C=C(C)/C=C(C)/C=C(\C)C(=O)O2)[C@H](C)[C@@H](O)[C@H]1C)O[C@H]1C[C@](C)(O)[C@@H](O[C@H]2C[C@@H](OC)[C@H](O)[C@@H](C)O2)C(C)O1 (stereo not given in full) | > 85.7 µM (inactive) | > 100 µM (inactive) | > 55 µM (inactive) | 0.91 µM (active) | 0.0374 µM (active) | > 89.1 µM (inactive) | 1.44 µM (inactive) | > 100 µM (inactive) | 69 µM (inactive) | > 100 µM (inactive) | > 90.2 µM (inactive) | – | 0.0447 µM (active) | > 100 | > 100 µM (inactive) | > 66.2 µM (inactive) | 63.1 µM (inactive) | > 100 µM (inactive) | > 100 µM (inactive) | > 61.8 µM (inactive)
